Data taken from patent EP0931078B1, “NOVEL TRICYCLIC PIPERIDINYL COMPOUNDS USEFUL AS INHIBITORS OF FARNESYL-PROTEIN TRANSFERASE” (SCHERING CORPORATION, priority 1996, dated 1998).
Where two headings read alike, the source gives them in different places.

Target: T1, partially purified rat brain famesyl protein transferase (FPT) (Rattus norvegicus, UniProt Q02293+Q04631)
T1 construct: partially purified rat brain famesyl protein transferase (FPT); from tissue; host or cells: rat brain
Experiment: In vitro enzyme assay: inhibition of Ras-CVLS farnesylation by farnesyl protein transferase (FPT)
Assay type: biochemical
Protocol: • 1. In vitro enzyme assays: FPT IC50 (inhibition of famesyl protein transferase, in vitro enzyme assay) are determined by the methods disclosed in […] or WO 95/10516. […] Cell-based assay. COS IC50 values refer to the COS cells activity inhibition of Ras processing, are determined by the methods disclosed in […] or WO 95/10516.

[1] = unit printed as uM (Examples 49-54)

T1 sequence (Q02293 whole entry, one chain of several): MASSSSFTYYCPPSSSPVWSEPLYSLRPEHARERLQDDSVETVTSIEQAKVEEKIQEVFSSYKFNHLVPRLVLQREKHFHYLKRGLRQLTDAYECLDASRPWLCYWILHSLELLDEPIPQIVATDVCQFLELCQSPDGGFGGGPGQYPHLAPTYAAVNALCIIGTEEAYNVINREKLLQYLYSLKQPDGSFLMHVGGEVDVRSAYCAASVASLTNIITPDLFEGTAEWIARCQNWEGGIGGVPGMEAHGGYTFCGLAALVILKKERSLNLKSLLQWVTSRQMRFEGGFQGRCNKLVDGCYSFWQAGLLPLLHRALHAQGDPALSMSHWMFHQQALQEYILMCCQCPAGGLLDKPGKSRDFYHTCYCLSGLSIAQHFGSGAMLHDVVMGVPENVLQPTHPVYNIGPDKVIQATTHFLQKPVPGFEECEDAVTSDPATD

O=C(NCCc1cccnc1)[C@@H]1CCCN(C2c3ncc(Br)cc3CCc3cc(Cl)cc(Br)c32)C1 (stereo partly drawn) [Example 52, 1-(3,10-Dibrorno-8-chforo-6,11-dihydro-5H-benzo[5,6]cyclohepta[1,2-b]pyridin-11-yl)-N-[2-(3-pyridinyl)ethyl]-3-piperidinecarboxamide]
IC50 [1]: 0.081 µM

O=C(NCC1CCNCC1)C1CCN(C2c3ccc(Cl)cc3CCc3cc(Br)cnc32)CC1 (stereo not drawn) [Example 8 Step B, 1-(3-Bromo-8-chloro-6,11-dihydro-5H-benzo[5,6]cyclohepta[1,2-b]pyridin-11-yl)-N-(4-piperidinylmethyl)-4-piperidinecarboxamide]
inhibition at 0.38 µM (read-out: FPT Inhibition): 12%

O=C(NCc1cccnc1)C1CCCN(C2c3ccc(Cl)cc3CCc3cc(Br)cnc32)C1 (single isomer, unassigned) [Example 10 Isomer A, 1-(3-Bromo-8-chloro-6,11-dihydro-5H-benzo[5,6]cyclohepta[1,2-b]pyridin-11-yl)-N-(3-pyridinylmethyl)-3-piperidinecarboxamide]
inhibition at 1.14 µM (read-out: FPT Inhibition): 6.1%

O=C(NCc1cccnc1)C1CCCCN1C1c2ccc(Cl)cc2CCc2cc(Br)cnc21 (single isomer, unassigned) [Isomer D1 amide]
IC50: 0.16 µM

CNC(=O)[C@@H]1CCCN(C2c3ncc(Br)cc3CCc3cc(Cl)cc(Br)c32)C1 (stereo partly drawn) [Example 50, 1-(3,10-Dibromo-8-chloro-6,11-dihydro-5H-benzo[5,6]cyclohepta[1,2-b]pyridin-11-yl)-N-methyl-3-piperidinecarboxamide]
IC50 [1]: 0.96 µM

O=C(NCc1cccnc1)C1CCN(C2c3ccc(Cl)cc3CCc3cc(Br)cnc32)CC1 (stereo not drawn) [Example 4, 1-(3-Bromo-8-chloro-6,11-dihydro-5H-benzo[5,6]cyclohepta[1,2-b]pyridin-11-yl)-N-(3-pyridinylmethyl)-4-piperidinecarboxamide]
IC50: 1.3 µM

O=C(NCc1ccc[n+]([O-])c1)[C@@H]1CCCN(C2c3ncc(Br)cc3CCc3cc(Cl)cc(Br)c32)C1 (single isomer, unassigned) [Example 51, 1-(3,10-Dibromo-8-chioro-6,11-dihydro-5H-benzo[5,6]cyclohepta[1,2-b]pyridin-11-yl)-N-(3-pyridinylmethyl)-3-piperidinecarboxamide N1-oxide]
IC50 [1]: 0.1 µM

O=C(CC1CCCN(C2c3ccc(Cl)cc3CCc3cc(Br)cnc32)C1)Nc1cccnc1 (stereo not drawn) [Example 19, 1-(3-Bromo-8-chloro-6,11-dihydro-5H-benzo[5,6]cyclohepta[1,2-b]pyridin-11-yl)-N-(3-pyridinyl)-3-piperidineacetamide]
inhibition at 1.1 µM (read-out: FPT Inhibition): 15%

O=C(CC1CCCN(C2c3ccc(Cl)cc3CCc3cc(Br)cnc32)C1)NCc1cccnc1 (stereo not drawn) [Example 18, 1-(3-Bromo-8-chloro-6,11-dihydro-5H-benzo[5,6]cyclohepta[1,2-b]pyridin-11-yl)-N-(3-pyridinylmethyl)-3-piperidineacetamide]
inhibition at 1.1 µM (read-out: FPT Inhibition): 9%

O=C(NCc1cccnc1)C1CCCN(C2c3ccc(Cl)cc3CCc3cc(Br)cnc32)C1 (single isomer, unassigned) [Example 10 Isomer D, 1-(3-Bromo-8-chloro-6,11-dihydro-5H-benzo[5,6]cyclohepta[1,2-b]pyridin-11-yl)-N-(3-pyridinylmethyl)-3-piperidinecarboxamide]
IC50: 0.187 µM

O=C(NCc1ccncc1)[C@@H]1CCCCN1C1c2ccc(Cl)cc2CCc2cc(Br)cnc21 (single isomer, unassigned) [Example 13, 1-(3-Bromo-8-chloro-6,11-dihydro-5H-benzo[5,6]cyclohepta[1,2-b]pyridin-11-yl)-N-(4-pyridinylmethyl)-2S-piperidinecarboxamide]
FPT Inhibition (@ 1.1 µM): 21%

O=C(Nc1ccncc1)C1CCN(C2c3ccc(Cl)cc3CCc3cccnc32)CC1 (stereo not drawn) [Example 1, 1-[8-Chloro-6,11-dihydro-5H-benzo[5,6]cyclohepta[1,2-b]pyridin-11-yl]-N-(4-pyridinyl)-4-piperidinecarboxamide]
IC50: 9.24 µM

O=C(Nc1ccncc1)C1CCN(C2c3ccc(Cl)cc3CCc3cc(Br)cnc32)CC1 (stereo not drawn) [Example 2, 1-(3-Bromo-8-chloro-6,11-dihydro-5H-benzo[5,6]cyclohepta[1,2-b]pyridin-11-yl)-N-(4-pyridinyl)-4-piperidinecarboxamide]
inhibition at 0.39 µM (read-out: FPT Inhibition): 0%

NC(=O)NCC1CCN(C(=O)C2CCN(C3c4ccc(Cl)cc4CCc4cc(Br)cnc43)CC2)CC1 (stereo not drawn) [Example 9, 1-[1-(3-Bromo-8-chloro-6,11-dihydro-5H-benzo[5,6]cyclohepta[1,2-b]pyridin-11-yl)-4-piperidinylcarbonyl]-4-[(1-aminomethanamido)methyl]piperidine]
IC50: 0.66 µM

O=C(NCc1cccnc1)C1CCCN(C2c3ncc(Br)cc3CCc3cc(Cl)cc(Br)c32)C1 (single isomer, unassigned) [Example 17 Isomer A, 1-(3,10-Dibromo-8-chloro-6,11-dihydro-5H-benzo[5,6]cyclohepta[1,2-b]pyridin-11-yl)-N-(3-pyridinylmethyl)-3-piperidinecarboxamide]
IC50: < 0.0099 µM

O=C(Nc1cccnc1)C1CCCN(C2c3ccc(Cl)cc3CCc3cc(Br)cnc32)C1 (stereo not drawn) [Example 11, 1-(3-bromo-8-chloro-6,11-dihydro-5H-benzo[5,6]cyclohepta [1,2-b]pyridin-11-yl)-N-(3-pyridinyl)-3-piperidinecarboxamide]
IC50: 0.065 µM

NCC1CCN(C(=O)C2CCN(C3c4ccc(Cl)cc4CCc4cc(Br)cnc43)CC2)CC1 (racemic) [Example 9 Step B]
inhibition at 0.38 µM (@ 0.38 µM, read-out: FPT Inhibition): 16%

O=C(NCc1cccnc1)C1CCCN(C2c3ncc(Br)cc3CCc3cc(Cl)cc(Br)c32)C1 (stereo not drawn) [Example 16, 1-(3,10-Dibromo-8-chloro-6,11-dihydro-5H-benzo[5,6]cyclohepta[1,2-b]pyridin-11-yl)-N-(3-pyridinylmethyl)-3-piperidinecarboxamide]
IC50: 0.027 µM

NC(=O)N1CCC(NC(=O)C2CCN(C3c4ccc(Cl)cc4CCc4cc(Br)cnc43)CC2)CC1 (racemic) [Example 7, 1-(3-Bromo-8-chloro-6,11-dihydro-5H-benzo[5,6]cyclohepta[1,2-b]pyridin-11-yl)-N-[4-(N-carboxamidopiperidinyl)]-4-piperidinecarboxamide]
inhibition at 0.36 µM (@ 0.36 µM): 15%

O=C(NCc1ccncc1)[C@H]1CCCCN1C1c2ccc(Cl)cc2CCc2cc(Br)cnc21 (single isomer, unassigned) [Isomer B2 amide]
FPT Inhibition (@ 1.1 µM): FPT Inhibition = 13% @ 1.1 µM

NC(=O)N1CCC(CNC(=O)C2CCN(C3c4ccc(Cl)cc4CCc4cc(Br)cnc43)CC2)CC1 (racemic) [Example 8, 1-(3-Bromo-8-chloro-6,11-dihydro-5H-benzo[5,6]cyclohepta[1,2-b]pyridin-11-yl)-N-[4-(N-carboxamidopiperidinyl)methyl]-4-piperidinecarboxamide]
inhibition at 1.04 µM (@ 1.04 µM): 41%

O=C(NCCc1ccccn1)C1CCN(C2c3ccc(Cl)cc3CCc3cc(Br)cnc32)CC1 (racemic) [Example 6, 1-(3-Bromo-8-chloro-6,11-dihydro-5H-benzo[5,6]cyclohepta[1,2-b]pyridin-11-yl)-N-(2-pyridiriylethyl)-4-piperidinecarboxamide]
inhibition at 1.1 µM (read-out: FPT Inhibition): 9%

O=C(NCc1ccncc1)[C@@H]1CCCCN1C1c2ccc(Cl)cc2CCc2cc(Br)cnc21 (single isomer, unassigned) [Example 12, 1-(3-Bromo-8-chloro-6,11-dihydro-5H-benzo[5,6]cyclohepta[1,2-b]pyridin-11-yl)-N-(4-pyridinylmethyl)-2S-piperidinecarboxamide]
inhibition at 1.1 µM (@ 1.1 µM, read-out: FPT Inhibition): 18%

O=C(CC1CCN(C2c3ccc(Cl)cc3CCc3cc(Br)cnc32)CC1)NCc1cccnc1 (stereo not drawn) [Example 43, 1-(3-Bromo-8-chloro-6,11-dihydro-5H-benzo[5,6]cyclohepta[1,2-b]pyridin-11-yl)-N-(3-pyridylmethyl)-4-piperidineacetamide]
inhibition at 0.22 µM (read-out: FPT INH): 43%

O=C(NCc1cccnc1)C1CCCN(C2c3ccc(Cl)cc3CCc3cc(Br)cnc32)C1 (single isomer, unassigned) [Example 10 Isomer C, 1-(3-Bromo-8-chloro-6,11-dihydro-5H-benzo[5,6]cyclohepta[1,2-b]pyridin-11-yl)-N-(3-pyridinylmethyl)-3-piperidinecarboxamide]
IC50: 0.179 µM

CN(C)CC(=O)N1CCC(CNC(=O)[C@@H]2CCCN(C3c4ncc(Br)cc4CCc4cc(Cl)cc(Br)c43)C2)CC1 (stereo partly drawn) [Example 53, 1-(3,10-Dibromo-8-chloro-6,11-dihydro-5H-benzo[5,6]cyclohepta[1,2-b]pyridin-11-yl)-N-[[1-[(dimethylamino)acetyl]-4-piperidinyl]methyl]-3-piperidinecarboxamide]
IC50 [1]: 0.11 µM

O=C(CC1CCN(C2c3ncc(Br)cc3CCc3cc(Cl)cc(Br)c32)CC1)NCc1cccnc1 (stereo not drawn) [Example 45, 1-(8-Chloro-3,10-dibromo-6,11-dihydro-5H-benzo[5,6]cycloheptal[1,2-b]pyridin-11-yl)-N-(3-pyridylmethyl)-4-piperidineacetamide]
IC50: 0.042 µM

O=C(NCCCN1CCCC1=O)C1CCCN(C2c3ncc(Br)cc3CCc3cc(Cl)cc(Br)c32)C1 (stereo not drawn) [Example 54, 1-(3,10-Dibromo-8-chloro-6,11-dihydro-5H-benzo[5,6]cyclohepta[1,2-b]pyridin-11-yl)-N-[3-(2-oxo-1-pyrrolidinyl)propyl]-3-piperidinecarboxamide]
IC50 [1]: 0.1 µM

O=C(NCc1ccncc1)[C@H]1CCCCN1C1c2ccc(Cl)cc2CCc2cc(Br)cnc21 (single isomer, unassigned) [Isomer A2 amide]
FPT Inhibition (@ 1.1 µM): FPT Inhibition = 0% @ 1.1 µM

O=C(NCc1cccnc1)C1CCCN(C2c3ncc(Br)cc3CCc3cc(Cl)cc(Br)c32)C1 (single isomer, unassigned) [Example 17 Isomer B, 1-(3,10-Dibromo-8-chloro-6,11-dihydro-5H-benzo[5,6]cyclohepta[1,2-b]pyridin-11-yl)-N-(3-pyridinylmethyl)-3-piperidinecarboxamide]
inhibition at 0.1 µM (read-out: FPT Inhibition): 3.4%
